Measurements taken from ChEMBL document CHEMBL1126121, “Non-prostanoid thromboxane A2 receptor antagonists with a dibenzoxepin ring system. 1” (J Med Chem, 1992).
Values joined by “and” are separate entries in the source; they are usually repeats but may differ in a detail not shown here. Equal values may be shown once.

Legend:
Cavia porcellus [1] = experiment: Compound was tested ex vivo for it''s inhibition of U-46619 induced platelet aggregation in the guinea pig ex vivo after 7 hr of administration at dose 10 mg/kg; type: functional
Cavia porcellus [2] = experiment: Compound was tested ex vivo for it's inhibition of U-46619 induced platelet aggregation in the guinea pig after 2 hr of administration at dose 10 mg/kg; type: functional
Cavia porcellus [3] = experiment: Compound was tested ex vivo for it's inhibition of U-46619 induced platelet aggregation in the guinea pig after 4 hr of administration at dose 10 mg/kg; type: functional
[4] = target: T1, Thromboxane A2 receptor (Homo sapiens) (UniProt P21731); experiment: Compound was tested for its binding affinity at Thromboxane A2 receptor by measuring its ability to displace [3H]-U-46,619 from guinea pig platelets at 1 uM; settings: Cavia porcellus, target entry is the homologue from another species
T1 sequence (whole entry): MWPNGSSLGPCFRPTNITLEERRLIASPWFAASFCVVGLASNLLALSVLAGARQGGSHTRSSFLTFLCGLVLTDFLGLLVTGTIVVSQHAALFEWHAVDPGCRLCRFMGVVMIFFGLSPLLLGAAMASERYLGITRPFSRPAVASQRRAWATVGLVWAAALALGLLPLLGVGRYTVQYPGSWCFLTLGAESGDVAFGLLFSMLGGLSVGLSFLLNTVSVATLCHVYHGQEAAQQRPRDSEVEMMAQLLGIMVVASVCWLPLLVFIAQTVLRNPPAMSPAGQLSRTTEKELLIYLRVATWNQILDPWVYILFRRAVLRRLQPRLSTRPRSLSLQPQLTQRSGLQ

[5] = target: T1, Thromboxane A2 receptor (Homo sapiens); experiment: Compound was tested for its binding affinity at Thromboxane A2 receptor by measuring its ability to displace [3H]U-46619 from guinea pig platelets; settings: Cavia porcellus; target entry is the homologue from another species; concentration not given here
[6] = target: T1, Thromboxane A2 receptor (Homo sapiens); experiment: Inhibitory effect against binding thromboxane A2 receptor on guinea pig platelets using [3H]U-46619 as radioligand at 1 uM concentration; settings: Cavia porcellus, target entry is the homologue from another species
Cavia porcellus [7] = experiment: Inhibitory effect of the compounds on U-46619-induced platelet aggregation ex vivo in guinea pig at the dose of 10 mg/kg 4 hr after oral administration; type: functional
Cavia porcellus [8] = experiment: Inhibitory effect of the compounds on U-46619-induced platelet aggregation ex vivo in guinea pig at the dose of 10 mg/kg 7 hr oral after administration; type: functional
Cavia porcellus [9] = experiment: Inhibitory effect of the compounds on U-46619-induced platelet aggregation ex vivo in guinea pig at the dose of 10 mg/kg 2 hr after oral administration; type: functional
Cavia porcellus [10] = experiment: Compound was tested ex vivo for it''s inhibition of U-46619 induced platelet aggregation in the guinea pig after 7 hr of administration at dose 10 mg/kg; type: functional
[11] = target: T1, Thromboxane A2 receptor (Homo sapiens); experiment: Binding affinity for thromboxane A2 receptor by measuring its ability to displace [3H]U-46619 from guinea pig platelets at 0.1 uM; settings: Cavia porcellus, target entry is the homologue from another species
[12] = target: T1, Thromboxane A2 receptor (Homo sapiens); experiment: Binding affinity for thromboxane A2 receptor by measuring ability to displace [3H]U-46619 from guinea pig platelets at 1 uM; settings: Cavia porcellus, target entry is the homologue from another species
Cavia porcellus [13] = experiment: Inhibitory effect of the compounds on U-46619-induced platelet aggregation ex vivo in guinea pig at the dose of 100 mg/kg 4 hr after oral administration; type: functional
Cavia porcellus [14] = experiment: Compound was tested ex vivo for it's inhibition of U-46619 induced platelet aggregation in the guinea pig after 4 hr of administration at dose 30 mg/kg; type: functional
Cavia porcellus [15] = experiment: Compound was tested ex vivo for it's inhibition of U-46619 induced platelet aggregation in the guinea pig after 2 hr of administration at dose 100 mg/kg; type: functional
Cavia porcellus [16] = experiment: Compound was tested ex vivo for it's inhibition of U-46619 induced platelet aggregation in the guinea pig after 2 hr of administration at dose 30 mg/kg; type: functional
Cavia porcellus [17] = experiment: Inhibitory effect of the compounds on U-46619-induced platelet aggregation ex vivo in guinea pig at the dose of 100 mg/kg 2 hr after oral administration; type: functional
Cavia porcellus [18] = experiment: Compound was tested ex vivo for it's inhibition of U-46619 induced platelet aggregation in the guinea pig after 4 hr of administration at dose 100 mg/kg; type: functional
Cavia porcellus [19] = experiment: Inhibitory effect of the compounds on U-46619-induced platelet aggregation ex vivo in guinea pig at the dose of 30 mg/kg 2 hr after oral administration; type: functional
[20] = target: T2, Thromboxane-A synthase (Homo sapiens) (UniProt P24557); experiment: Inhibitory activity against thromboxane A2 synthase obtained from bovine platelet microsomes at 10 uM; settings: Bos taurus, target entry is the homologue from another species
T2 sequence (whole entry): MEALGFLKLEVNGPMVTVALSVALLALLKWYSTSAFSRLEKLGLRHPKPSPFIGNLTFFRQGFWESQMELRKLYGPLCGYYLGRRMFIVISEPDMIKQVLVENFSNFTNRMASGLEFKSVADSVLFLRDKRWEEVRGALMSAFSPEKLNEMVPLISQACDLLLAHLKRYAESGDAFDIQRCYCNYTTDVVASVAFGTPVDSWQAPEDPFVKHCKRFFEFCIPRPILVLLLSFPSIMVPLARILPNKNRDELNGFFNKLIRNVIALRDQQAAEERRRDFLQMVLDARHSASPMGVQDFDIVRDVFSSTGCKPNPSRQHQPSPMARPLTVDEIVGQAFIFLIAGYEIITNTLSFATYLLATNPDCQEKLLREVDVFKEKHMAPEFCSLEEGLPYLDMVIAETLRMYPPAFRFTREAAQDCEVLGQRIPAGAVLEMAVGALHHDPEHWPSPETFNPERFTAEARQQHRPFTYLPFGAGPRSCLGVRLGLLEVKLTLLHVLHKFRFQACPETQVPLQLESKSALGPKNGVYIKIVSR

[21] = system: Thromboxane-A synthase (Bos taurus); experiment: Inhibitory effect against thromboxane A2 synthase from bovine platelets at 10 uM concentration
Cavia porcellus [22] = experiment: Compound was tested ex vivo for it''s inhibition of U-46619 induced platelet aggregation in the guinea pig after 4 hr of administration at dose 10 mg/kg; type: functional
Cavia porcellus [23] = experiment: Compound was tested ex vivo for it''s inhibition of U-46619 induced platelet aggregation in the guinea pig after 2 hr of administration at dose 10 mg/kg; type: functional
[24] = target: T1, Thromboxane A2 receptor (Homo sapiens); experiment: Compound was tested for its binding affinity at TXA2 receptor by measuring its ability to displace [3H]U-46619 from guinea pig platelets at 1 uM; settings: Cavia porcellus, target entry is the homologue from another species

Compound	Aggregation (Cavia porcellus [2]) [%]	Aggregation (Cavia porcellus [3]) [%]	inhibition [6]	Platelet aggregation (Cavia porcellus [7]) [%]	Platelet aggregation (Cavia porcellus [9]) [%]	inhibition [11] [%]	inhibition [12] [%]	inhibition [20] [%]	inhibition [21] [%]	also measured
O=C(O)c1ccc2c(c1)C(SCCNS(=O)(=O)/C=C/c1ccccc1)c1ccccc1CO2 (racemic) [listing 1 of 2 here]	0	2.3	–	–	–	–	–	–	–	Aggregation (Cavia porcellus [1]): 10.7%
O=C(O)c1ccc2c(c1)C(SCCNS(=O)(=O)/C=C/c1ccccc1)c1ccccc1CO2 (racemic) [listing 2 of 2 here]	–	–	97%	–	–	–	–	–	–	inhibition [4]: 97%; inhibition [5]: 92%
O=C(O)c1ccc2c(c1)C(SCCNS(=O)(=O)c1ccccc1)c1ccccc1CO2 (stereo unspecified)	11.8	4.5	92% and 84%	4.5	11.8	72	92	–	–	Platelet aggregation (Cavia porcellus [8]): 12.3%; Aggregation (Cavia porcellus [10]): 12.3%
O=C(O)COc1ccc(CCNS(=O)(=O)c2ccccc2)cc1 [SULOTROBAN]	–	–	31%	87	–	–	–	–	–	Platelet aggregation (Cavia porcellus [13]): 57%; inhibition [4]: 31%; Aggregation (Cavia porcellus [14]): 87%; Aggregation (Cavia porcellus [15]): 12.7%; inhibition [5]: -5%; Aggregation (Cavia porcellus [16]): 28%; Platelet aggregation (Cavia porcellus [17]): 12.7%; Aggregation (Cavia porcellus [18]): 57%; Platelet aggregation (Cavia porcellus [19]): 28%
O=C(O)c1ccc2c(c1)C(SCCNS(=O)(=O)c1cccs1)c1ccccc1CO2 (stereo unspecified)	14.3	2.1	99%	2.1	14.3	84	99	33	33	Aggregation (Cavia porcellus [1]): 12.3%; Platelet aggregation (Cavia porcellus [8]): 12.3%
O=C(NCCSC1c2ccccc2COc2ccc(C(=O)O)cc21)OCc1ccccc1 (stereo unspecified)	–	–	96%	57.3	8.7	79	96	56	56	Aggregation (Cavia porcellus [22]): 57.3%; Aggregation (Cavia porcellus [23]): 8.7%
O=C(O)c1ccc2c(c1)C(SCCNS(=O)(=O)c1ccc3ccccc3c1)c1ccccc1CO2 (stereo unspecified)	–	–	95%	–	–	77	–	38	38	pInhibition [24]: 95%
